Experiments:
[1] = system: G3-2; assay: Northern analysis of mRNA accumulation in cultured tobacco cells; type: cell-based
Experimental: FIG. 1. Four classes of SA-induced early genes. Northern analysis of genes identified by differential display. Gel-purified DNA fragments produced by ddPCR were either used directly for random-primed labeling and probing of Northern filters (e.g. C7-1, C6-1, and G9-2) or first subcloned and released by restriction digest. Each lane contains 1 μg of poly(A) mRNA from cultured tobacco cells treated with (1) H2O, 4 hr; (2) 200 μM SA, 4 hr; (3) 71 μM CHX, 5 hr; (4) 71 μM CHX, 5 hr plus 200 μM SA after 1 hr (4 hr total); (5) 20 μM SA, 2 hr; (7) 200 μM SA, 8 hr. One blot was sequentially hybridized with the G1-1 fragment and the β-ATPase gene as a loading control probe. response classes (I-IV) are indicated on the left of the autoradiograms.
FIG. 2. Time course of SA-induced gene expression. Northern analysis of representative differential display genes following treatment of cultured tobacco cells with SA for the indicated time (in hours, except lanes 2-4, which refer to 10, 20, and 30 min.). Twenty micrograms of total RNA was loaded per lane. Blots were hybridized with ddPCR fragments indicated at right or with the β-ATPase gene as a loading control probe. Autoradiogram exposure times were optimized for each gene. The signal for C18-1 was enhanced by using the full length cDNA as probe. Labels on left indicate response class.
(§1) FIG. 4. Specificity of induction among SA analogs and other signalling compounds. Northern analysis of representative differential display genes following treatment of tobacco cells with 100 μM or 1 mM (left and right side of triangles, respectively) of the following chemicals for 2-2.5 hr: salicylic acid (SA, lanes 4 and 5), acetylSA (ASA, lanes 6 and 7), benzoic acid (BA, lanes 8 and 9), 4-hydroxybenzoic (4HBA, lanes 10 and 11), thiamine (thia, lanes 12 and 13), methyljasmonate (MJ, lanes 14 and 15), abscisic acid (ABA, lanes 16 and 17), or 2,4-dichlorophenoxyacetic acid (2,4-D, lanes 18 and 19). Control treatments are H2O (H, lane 1), 1% ethanol (E, solvent concentration in MJ treatments, lane 2), or 1% DMSO (D, solvent concentration in 2,4D treatments, lane 3). Blots were hybridized with ddPCR fragments indicated at right or with the β-ATPase geneas a loading control probe. Autoradiogram exposure times were optimized for each gene. The signal for C18-1 was enhanced by using the full length cDNA as probe. Labels on left indicate response class.
(§2) Differential display technology (Liang, P. and Pardee, A. B., Science 257: 967-971, 1992) was used to identify genes activated in the presence of SA, CHX and both. Therefore the absence or presence of SA, induction at 3 timepoints of SA-treatment, 2 different concentrations of SA and the effect of addition of CHX were measured. Seven treatments in total were performed. Treatment of tobacco BY-2 suspension cells and leaves and differential display PCR reactions were performed as described (Horvath and Chua (1996), Plant Mol. Biol. 31, 1061-1072).
The specificity for induction by SA was tested by treating tobacco cells with a range of SA analogs and plant signalling compounds at 0.1 and 1 mM for approximately 2.5 h. […] Among the SA-analogs, acetyl-SA (ASA, aspirin), benzoic acid (BA) and 4-hydroxybenzoic acid (4HBA), responses generally reflected the ability of the analog to substitute for SA in other cellular responses (Yalpani, N. et al., Plant Cell 3: 809-818, 1991, Yang, Y. and Klessig, D. F., Proc. Natl. Acad. Sci. 93, 14972-14977, 1996). […] Several genes, including those for proteinase inhibitors and lipoxygenase (Hildmann, T. et al., Plant Cell 4: 1157-1170, 1992; Melan, M. A. et al., Plant Physiol. 101: 441-450, 1993; Xu, D. et al., Plant Mol. Biol. 22: 573-588, 1993) are known to be under dual regulation by MJ and ABA. A similar mode of regulation may be in effect with C14-1b. the auxin 2,4-D induced several genes including C18-1/EREBP1 and C6-2.

[2] = system: early SA-induced genes identified by differential display; assay: Northern analysis of differential display genes in cultured tobacco cells; type: cell-based
Experimental: FIG. 1. […] Northern analysis of genes identified by differential display. Gel-purified DNA fragments produced by ddPCR were either used directly for random-primed labeling and probing of Northern filters (e.g. C7-1, C6-1, and G9-2) or first subcloned and released by restriction digest. Each lane contains 1 μg of poly(A) mRNA from cultured tobacco cells treated with (1) H2O, 4 hr; (2) 200 μM SA, 4 hr; (3) 71 μM CHX, 5 hr; (4) 71 μM CHX, 5 hr plus 200 μM SA after 1 hr (4 hr total); (5) 20 μM SA, 2 hr; (7) 200 μM SA, 8 hr.
as §1, with “The signal for C18-1 was enhanced by using the full length cDNA as probe.” left out
as §2
The specificity for induction by SA was tested by treating tobacco cells with a range of SA analogs and plant signalling compounds at 0.1 and 1 mM for approximately 2.5 h. […] Several genes, including those for proteinase inhibitors and lipoxygenase (Hildmann, T. et al., Plant Cell 4: 1157-1170, 1992; Melan, M. A. et al., Plant Physiol. 101: 441-450, 1993; Xu, D. et al., Plant Mol. Biol. 22: 573-588, 1993) are known to be under dual regulation by MJ and ABA.

[3] = system: C18-1/EREBP1; assay: Northern analysis of mRNA accumulation in cultured tobacco cells; type: cell-based; conditions: SA time course, full length cDNA probe
[4] = system: G1-1/EGT; conditions: SA; previously shown (Horvath and Chua, 1996); cited from earlier work

Compound: O=C(O)c1ccccc1O [SA, salicylic acid]
- G3-2 mRNA levels at 20 μM SA ([1]; 20 μM SA): comparable to those at 200 μM
- G3-2 induction at 0.1 mM versus 1 mM ([1]; 0.1 and 1 mM, approximately 2.5 h): equal or greater induction at 0.1 mM versus 1 mM
- G3-2 mRNA levels between 2 and 12 h ([1]; SA time course): increased steadily
- time before which G3-2 is not detectably activated ([1]; SA time course): ≥ 2 h
- sensitivity of G3-2 to SA ([1]; data not shown): similarly sensitive as G8-1
- induction of most of the genes at 20 μM SA ([2]; 20 μM SA): little or none
- induction of most of the genes at 200 μM SA ([2]; 200 μM SA): clear induction
- time at which increase in C18-1/EREBP1 mRNA is first apparent [3]: 10 min
- time at which G1-1/EGT is induced [4]: 20 to 30 min
- time of peak G1-1/EGT [4]: 3 h

— patent publication US20020039780A1, “Salicyclic acid inducible genes and promoters” (priority 1998, published 2002)
